{
  "source": "patent US7456197B2",
  "about": "“Pyridinium cationic lipids as gene transfer agents” (The Texas A&M University System, priority 2003, dated 2008)",
  "key": {"[1]": {"tested_on": "lung cancer cell line NCI-H23", "assay": "Luciferase (pGL3) transfection efficiency of lipoplexes, NCI-H23", "assay_type": "cell-based, human", "description": "The three series of cationic lipids newly synthesized were assessed for their transfection efficiency in vitro, using the experimental conditions optimized in a previous study.^23 Essentially the cationic lipids were mixed with cholesterol at a 1:1 molar ratio, dissolved in chloroform/methanol and dried under vacuum to generate a lipid film. The dried lipid film was hydrated with sterile phosphate buffer isotonic saline with pH=7.4 (PBS) and sonicated to yield cationic liposomes. The resulting liposomal solution was allowed to react with a DNA solution to form the final cationic lipid-DNA complexes (lipoplexes), which were assessed for transfection efficiency using different cell cultures. We used a pGL3 plasmid (Promega, Madison, Wisc.), encoding a firefly luciferase gene under the control of the constitutively active SV40 promoter as the reporter for the transfection efficiency. An optimal^23 electrostatic charge ratio cationic lipid/DNA of 2:1 was used in all preparations. […] The ability of these new cationic lipids to generate relatively small cationic liposomes could be attributed to the relatively large curvature radius induced in the bilayer by the bulky pyridinium cationic head.\nDioleoylphosphatidylethanolamine (DOPE), cholesterol (CHOL), N-(2,3-dioleoyloxypropyl)-N,N,N-trimethylammonium chloride (DOTAP) were commercial products. The purity of the lipids was checked by thin layer chromatography and also by differential scanning calorimetry (DSC), which was also used for determining the critical temperature Tc. For the preparation of the liposomes a protocol optimized for this type of compounds was adopted as follows. The cationic lipid (with or without helper lipid) was dissolved in chloroform/methanol (2/1, v/v) to reach a final concentration of 1 mM for the charged species. From this stock solution 50 μL were aliquoted in a 1 mL tube and the solvent was evaporated in a SpeedVac evaporator, under vacuum, for 1 h. The dried lipid film was prepared by removing the traces of organic solvent in a dessicator, over Drierite®, under vacuum, overnight. The film was hydrated with 500 μL sterile phosphate buffer saline (PBS) the tube was purged with sterile N2, and vortexed for 1 minute. The liposomes were generated by sonicating the tube in a water bath sonicator for 5-30 minutes at 62° C. and at 37° C. for DOTAP. After sonication the preparations were allowed to reach room temperature.\nFor generating the lipoplexes, 1.4-2.8 μL plasmid DNA solution (0.5 μg/μL) was diluted with 100 μL Optimem®. A liposome solution was prepared separately by diluting the initial liposomal stock solution (0.1 mM in cationic lipid) with Optimem® in specified proportions, to reach a final volume of 50 μL. Over this liposome solution 50 μL of the DNA stock solution was added, the tube was incubated for 30 minutes at room temperature and then the content diluted with 500 μL Optimem® (final volume of the lipoplex stock solution: 600 μL).\nThe lipoplexes was tested for their transfection properties over five different cancer cell lines—breast carcinoma (MCF-7 and MDA-Mb231), lung carcinoma (NCI-H23), prostate carcinoma (DU-145) and brain carcinoma (SWB-95). The cells were maintained in 10% fetal bovine serum (FBS)—enriched RPMI 1640 at 37° C. and 5% CO2 in a humidified atmosphere. Twenty-four hours prior to transfection the cells were transferred in 96-wells microtiter plate at a density of 20,000 cells/well. Each well received 100 μL medium and the plate was incubated in the same conditions. All experiments were done in triplicate or quadruplicate.\nImmediately before transfection the medium was removed from each well and the cells were briefly washed with 200 μL sterile PBS. After removal of the PBS each well received 100 μL lipoplex stock solution and the plate was placed in the incubator for 1 hour. Then, 100 μL medium was added to each well and the plate was incubated for 24 hours. […]"}, "glioma SWB-95": {"tested_on": "glioma SWB-95", "assay": "Luciferase (pGL3) transfection efficiency of lipoplexes, SWB-95", "assay_type": "cell-based", "settings": "optimized lipoplexes, Chol 1:1, FIG. 7", "from_the_text": "(§1) It is well known that specific cell types and cell lines may vary in their ability to be transfected. In addition to the NCI-H23 lung cancer cell line, we therefore tested our optimized formulation of 5AMyr/Chol 1:1 versus DOTAP/Chol 1:1 as reference on four other cell lines from tumors representing cancers of great importance to human health, as well as different tissues of origin: breast carcinomas MCF-7, MDA-Mb231, prostate carcinoma DU-145 and glioma SWB-95 (FIG. 7).\n(§2) Dioleoylphosphatidylethanolamine (DOPE), cholesterol (CHOL), N-(2,3-dioleoyloxypropyl)-N,N,N-trimethylammonium chloride (DOTAP) were commercial products. The purity of the lipids was checked by thin layer chromatography and also by differential scanning calorimetry (DSC), which was also used for determining the critical temperature Tc. For the preparation of the liposomes a protocol optimized for this type of compounds was adopted as follows. The cationic lipid (with or without helper lipid) was dissolved in chloroform/methanol (2/1, v/v) to reach a final concentration of 1 mM for the charged species. […]\n(§3) For the luciferase assay, 20 μL of cell lysate was aliquoted in a test tube and assessed directly using a luciferase assay kit from Promega by means of a luminometer.\n(§4) The protein content was quantified using a bicinchoninic acid (BCA) assay. […]"}, "[2]": {"tested_on": "breast carcinoma MDA-Mb231", "assay": "Luciferase (pGL3) transfection efficiency of lipoplexes, MDA-Mb231", "assay_type": "cell-based", "settings": "optimized lipoplexes, Chol 1:1, FIG. 7", "from_the_text": "as §1, §2, §3, §4"}, "[3]": {"tested_on": "lung cancer cell line NCI-H23", "assay": "Luciferase (pGL3) transfection efficiency of lipoplexes, NCI-H23", "assay_type": "cell-based, human", "settings": "exposure from one hour to three hours; data not shown"}, "[4]": {"tested_on": "prostate carcinoma DU-145", "assay": "Luciferase (pGL3) transfection efficiency of lipoplexes, DU-145", "assay_type": "cell-based", "settings": "optimized lipoplexes, Chol 1:1, FIG. 7", "from_the_text": "as §1, §2, §3, §4"}},
  "note": "“Also recorded” adds a separate entry of the source.",
  "data": [
    {"smiles": "CCCCCCCCCCCCCC(=O)OCC(COC(=O)CCCCCCCCCCCCC)[n+]1c(C)cc(C)cc1C.F[P-](F)(F)(F)(F)F", "note": "[Lipid 5AMyr, 1-(1,3-dimyristoyloxypropane-2-yl)-2,4,6-trimethylpyridinium hexafluorophosphate]", "values": [
      {"measurement": "transfection efficiency, counterion study", "setting": "[1]; 5Myr/Chol 1:1, PBS, sonicated two sequences of 15 minutes, FIG. 5", "value": "surpassed DOTAP in transfection efficiency"},
      {"measurement": "expression of luciferase relative to DOTAP/Chol 1:1", "setting": "[1]; cholesterol 1:1", "value": "about twice more effective than DOTAP"},
      {"measurement": "transfection efficiency (in words)", "setting": "[1]; cholesterol as helper lipid 1:1, charge ratio lipid/DNA 2:1", "value": "highest transfection peaks; also recorded: the most effective"},
      {"measurement": "transfection efficiency (luciferase activity normalized for protein)", "setting": "[1]; optimized lipoplexes, Chol 1:1, FIG. 7 caption (from FIG. 4)", "value": "576000 RLU/μg of protein"},
      {"measurement": "transfection efficiency (luciferase activity normalized for protein)", "setting": "glioma SWB-95", "value": "10934 RLU/μg of protein"},
      {"measurement": "transfection efficiency (luciferase activity normalized for protein)", "setting": "[2]", "value": "2950 RLU/μg of protein"},
      {"measurement": "transfection efficiency on longer cell exposure to lipoplexes", "setting": "[3]", "value": "higher transfection efficiencies"},
      {"measurement": "transfection efficiency (luciferase activity normalized for protein)", "setting": "[4]", "value": "327 RLU/μg of protein"}
    ]}
  ]
}
